Assay results taken from US20050260253A1, “Transmucosal gel formulations” (Recordati Ireland Limited, priority 2004, published 2005).
Read-outs that look alike come from different tables or passages of the source.

Legend:
[1] = test system: genital blood flow in female anesthetized rabbits; assay: Genital tissue oxyhemoglobin (genital engorgement) by laser oximetry, basal and after pelvic nerve stimulation, in vivo model of female sexual arousal; parameters: species or system rabbit (New Zealand White); details: for nerve-induced increase in genital tissue OxyHb: topical vaginal formulation; for mean AUC of genital tissue OxyHb compared to vehicle-treated control group: 15-35 min; for response to pelvic nerve stimulation (genital tissue oxyhemoglobin) vs control stimulations: vaginal submucosal injection 100 μg
Procedure: The effect of Rec 15/2615 formulation on genital blood flow, a physiologic parameters of female sexual arousal, was measured in both the basal, non-aroused state and following stimulation of the pelvic nerve, which mimics the sexually aroused state, in an established in vivo animal model of female sexual arousal (see, e.g., Munarriz, R., et al., 2003, A review of the physiology and pharmacology of peripheral (vaginal and clitoral) female genital arousal in the animal model, J. Urol. 170(2 Pt 2):S40-44; Min, K., et al., 2000, Sildenafil augments pelvic nerve-mediated female genital sexual arousal in the anesthetized rabbit. Intl. J. Impot. Res. 12(Suppl)3:S32-39; Tarcan, T., et al., 2000, Systemic administration of apomorphine improves the hemodynamic mechanism of clitoral and vaginal engorgement in the rabbit. Int J Impot Res. 12:235-240; Park, K., et al., 1997, Vasculogenic female sexual dysfunction: the hemodynamic basis for vaginal engorgement insufficiency and clitoral erectile insufficiency. Intl. J. Impot. Res. 9:27-37). Each of the foregoing references is incorporated herein by reference in its entirety.
(§1) Female New Zealand White rabbits (4.5 to 5 kg) were anesthetized by intramuscular injection of ketamine (35 mg/kg) and xylazine (5 mg/kg) and secured in the supine position. Anesthesia was maintained as needed with additional intramuscular xylazine (5 mg/ml). A midline neck incision (3 cm) was fashioned to access the carotid artery. A 20-gauge angiocatheter was inserted into the carotid artery for systemic blood pressure measurements. […] Body temperature was maintained with an electric heat pad. Following subcutaneous lidocaine injection, the perivesical space was exposed through a mid-line abdominal incision. The pelvic nerve was identified and carefully dissected under the perivesical fat on the postero-lateral aspect of the upper vagina. Bladder contents were aspirated through the bladder wall with an 18 gauge needle and 50 ml syringe. Under direct vision, a bipolar platinum wire electrode was hooked onto the pelvic nerve without cutting the nerve. Unilateral pelvic nerve stimulation was accomplished with a Grass SD9 stimulator set at normal polarity and repeat mode to generate a 30 second train of square waves with 10 V pulse amplitude, 0.8 msec pulse duration and 2-6 Hz frequency. A laser Doppler flowmetry surface probe (model BLF21D, Transonic System Inc, Ithaca, N.Y., USA) was placed into the rabbit vagina and used to confirm unilateral pelvic nerve stimulation. The interval between stimulations was 10-15 min to prevent nerve exhaustion.
Tissue hemoglobin concentration was determined by a near infrared optical spectroscopy technique using a dual channel laser oximeter (model 96208; ISS, Inc., Champaign, Ill.). This technique utilizes a continuous wave optical spectrometer with a fiber optic array probe consisting of one detector and 8 light sources. The sources emit light in the near infrared spectrum (700-900 nm) which can penetrate a targeted volume of tissue (˜530 mm^3) to an average depth of 7.2 mm beneath the optical fibers. By detecting scattered light, absorption by oxyhemoglobin (OHb) and deoxyhemoglobin can be quantified and total hemoglobin can be calculated. Laser oximetry can thus be utilized to assess local tissue hemodynamics in a non-invasive and continuous fashion. The skin around the labia was carefully shaved to ensure good contact with the optical fibers. The probe (2 cm in length) was positioned longitudinally on the skin overlying the clitoris, labia and vagina, such that the detector fiber was positioned just below the pubic arch. The probe assembly was secured in place by a metal stand. The area over the probe was covered with a black cloth to prevent any interference from natural or artificial ambient light sources.
A flexible 18 gauge catheter was attached to a syringe loaded with hydrogel formulation. The catheter was filled until the formulation reached 3-5 mm from the open end. […]

systemic blood pressure = assay: Systemic blood pressure via carotid artery catheter in anesthetized rabbits; type: in vivo, rabbit (New Zealand White)
Procedure: as §1, with “The interval between stimulations was 10-15 min to prevent nerve exhaustion.” left out

[2] = Plasma concentration of Rec 15/2615 by LC/MS-MS after vaginal application or submucosal injection; type: in vivo, rabbit; details: for concentration at 15 min: female, rabbit, plasma, read-out: Mean plasma levels of Rec 15/2615
Procedure: A flexible 18 gauge catheter was attached to a syringe loaded with hydrogel formulation. The catheter was filled until the formulation reached 3-5 mm from the open end. The catheter was placed 2.5 cm into the vagina and secured to the labia with suture to prevent migration. The syringe was placed on the heating pad to keep the formulation warm. Following control nerve stimulations, 1 ml of formulation was infused into the vagina. Pelvic nerve stimulation was repeated 15 min and 30 min afterwards. Nerve stimulation at the 15 min time point coincided with the time of maximal serum concentration.
Rec 15/2615 hydrochloride (1 mg/ml) was dissolved in 10% (v/v) N,N-dimethylformamide. Prior to the application of the laser oximeter probe, Rec 15/2615 hydrochloride solution was loaded into two 23 gauge infusion sets connected to 1 ml syringes (50 μl per infusion set). Needles were inserted into the distal vaginal wall, just below the mucosal surface, at the 3 and 9 o'clock positions. Following control nerve stimulations, drug was infused into the vagina. Pelvic nerve stimulation was repeated 15 min and 30 min after drug administration.
Blood samples (˜2 ml) were obtained from the carotid artery prior to formulation administration and then […] after formulation administration. Samples were collected in heparinized syringes and transferred into pre-cooled polypropylene tubes on ice. Plasma was obtained by centrifugation at 1200×g for 2 min at 4° C. and stored at −20° C.
0.1 mL of rabbit plasma was transferred to an Eppendorf tube and 10 μL of internal standard methanolic solution (0.2 μg/mL of 4-amino-6,7-dimethoxy-2-[4-(2-isopropyl-5-methylphenoxy acetyl)-1-piperazinyl]quinazoline (Rec 15/2693) in methanol) were added. 1 mL of acetonitrile was added to each sample and samples were shaken on a multimixer shaker for 1 min. Protein was allowed to precipitate and samples were then centrifuged at 4° C. for 10 min at 2700 g. The organic layer was transferred to a new glass tube and evaporated at 45° C. under a stream of nitrogen. The residue was dissolved in 250 μL of buffer solution containing methanol/10 mM ammonium formate, pH 3.5 (40:60; v/v). Samples were mixed 1 min using a vortex mixer and clarified by centrifugation (5 min×2700 g). The clarified solution was transferred into an autosampler vial. Aliquots of 20 μL were analyzed by LC/MS-MS.

Structure (SMILES) | effect on genital tissue oxyhemoglobin administered as a gel compared with direct submucosal injection ([1]; formulations 0.075% and 0.15% vs submucosal injection, considering plasma levels at 15 min) | effect on blood pressure (systemic blood pressure; topical vaginal administration, 0.075-0.3% formulations) | effect on systemic blood pressure (systemic blood pressure; vaginal submucosal injection (data not shown)) | concentration at 15 min ([2]; other: submucosal injection into the distal vaginal wall, 15 min after direct submucosal injection of 0.1 mg) | concentration at 15 min ([2]; other: vaginal application, 15 min after vaginal application of 1 ml of formulation 0.075%) | concentration at 15 min ([2]; other: vaginal application, 15 min after vaginal application of 1 ml of formulation 0.15%) | concentration at 15 min ([2]; other: vaginal application, 15 min after vaginal application of 1 ml of formulation 0.3%) | plasma levels with increasing concentration of active compound in the formulation ([2]; vaginal application, 0.075-0.3%) | nerve-induced increase in genital tissue OxyHb ([1]; pelvic nerve stimulation at 15 min) | nerve-induced increase in genital tissue OxyHb ([1]; pelvic nerve stimulation at 30 min) | AUC of genital tissue OxyHb relative to vehicle ([1]; topical vaginal, 0-35 min, dose-dependent trend) | mean AUC of genital tissue OxyHb compared to vehicle-treated control group ([1]; topical vaginal, 1 ml formulation 0.15%) | mean AUC of genital tissue OxyHb compared to vehicle-treated control group ([1]; topical vaginal, 1 ml formulation 0.3%) | mean area-under-the-curve (AUC) of genital tissue OxyHb compared to vehicle ([1]; topical vaginal, 1 ml formulation, 0-15 min, all concentrations except 0.15%) | duration of sustained genital engorgement following formulation administration ([1]; topical vaginal, duration of the experimental protocol) | response to pelvic nerve stimulation (genital tissue oxyhemoglobin) vs control stimulations ([1]; 15 min after injection) | response to pelvic nerve stimulation (genital tissue oxyhemoglobin) vs control stimulations ([1]; 30 min after injection)
COc1cc2nc(N3CCN(C(=O)COc4c(OC)cccc4C(C)C)CC3)nc(N)c2cc1OC.Cl.Cl [Rec 15/2615 hydrochloride] | higher than that obtained by direct injection | – | – | – | – | – | – | – | – | – | – | – | – | – | – | – | –
COc1cc2nc(N3CCN(C(=O)COc4c(OC)cccc4C(C)C)CC3)nc(N)c2cc1OC [Rec 15/2615, 4-amino-6,7-dimethoxy-2-{4-[(2-isopropyl-6-methoxyphenoxy)acetyl]-1-piperazinyl}quinazoline] | – | no significant effect | did not affect systemic blood pressure | 26.3 ng/mL | 10.6 ng/mL | 45.2 ng/mL | 72.5 ng/mL | dose-dependent increase | significant increase | remained high | higher AUC values relative to vehicle | statistically significant difference | statistically significant difference | similar | up to 45 minutes | significantly enhanced response | did not reach statistical significance
